Source: patent US10653689B2, “Combination-based treatment method” (priority 2014, dated 2020)

Tested on: BRCA1-deficient human breast cancer cell line, MX-1
Assay: Tumor growth delay in MX-1 human breast cancer model in mice
Type: in vivo
Set-up: Median TTE: unit not given beside the values
Protocol: Cancerous cells from the BRCA1-deficient human breast cancer cell line, MX-1, were injected subcutaneously in female mice. […]
Animal weight, clinical observations and tumor volume were monitored twice/week until the endpoint (2000 mm^3 of tumor volume or Day 88) was met.
Efficacy was measured by tumor growth delay and regression response rate.

[1] = rucaparib 30 mg/kg po q.d. × 21
[2] = rucaparib 150 mg/kg po q.d. × 21

For `CNCc1ccc(-c2[nH]c3cc(F)cc4c3c2CCNC4=O)cc1` [rucaparib], the “Median TTE” value [1] was 39, the “Regressions CR” value [1] was 0% and the “Regressions PR” value [1] was 0%. For the same molecule, the “Regressions TFS” value [1] was 0%, the “Statistical Results For Groups Tested” value [1] was “Significant against vehicle (p ≤ 0.05)” and the T-C [1] was 14 days. For the same molecule, the TGD [1] was 56%, the “Median TTE” value [2] was 43 and the “Regressions CR” value [2] was 0%. For the same molecule, the “Regressions PR” value [2] was 0%, the “Regressions TFS” value [2] was 0% and the “Statistical Results For Groups Tested” value [2] was “Significant against vehicle (p ≤ 0.01)”. The T-C [2] was 18 days, the TGD [2] was 73% and the “efficacy (mean tumor volumes, FIG. 1)” value (single agent, at both the 30 mg/kg and 150 mg/kg dosages) was “only marginally effective”.

With “pentaerythritol-based multi-arm polymer conjugate of irinotecan [PBMAPCI]” the “Median TTE” value (PBMAPCI 10 mg/kg iv qwk × 4) was 57, the “Regressions CR” value (PBMAPCI 10 mg/kg iv qwk × 4) was 10% and the “Regressions PR” value (PBMAPCI 10 mg/kg iv qwk × 4) was 0%. For the same molecule, the “Regressions TFS” value (PBMAPCI 10 mg/kg iv qwk × 4) was 10%, the “Statistical Results For Groups Tested” value (PBMAPCI 10 mg/kg iv qwk × 4) was “Significant against vehicle (p ≤ 0.001)” and the T-C (PBMAPCI 10 mg/kg iv qwk × 4) was 32 days. The TGD (PBMAPCI 10 mg/kg iv qwk × 4) was 129%, the “Median TTE” value (PBMAPCI 50 mg/kg iv qwk × 4) was 88 and the “Regressions CR” value (PBMAPCI 50 mg/kg iv qwk × 4) was 100%. The “Regressions PR” value (PBMAPCI 50 mg/kg iv qwk × 4) was 0%, the “Regressions TFS” value (PBMAPCI 50 mg/kg iv qwk × 4) was 100% and the “Statistical Results For Groups Tested” value (PBMAPCI 50 mg/kg iv qwk × 4) was “Significant against vehicle (p ≤ 0.001)”. For the same molecule, the T-C (PBMAPCI 50 mg/kg iv qwk × 4) was 63 days and the TGD (PBMAPCI 50 mg/kg iv qwk × 4) was 252%.
